Values of other authors, collected in patent US8197846B2, “Sustained release pharmaceutical composition” (Astellas Pharma Inc., priority 2003, dated 2012).
Structures can show the parent of a compound that is named as a salt.

What was measured:
[1] = not given; remark: listed apart in the source

| SMILES | adverse reactions when administered as powder triturated with lactose (powder triturated with lactose) | adverse reactions (including abnormal clinical data) presumably related to the agent (104 cases among 4724 cases, approval and post marketing surveillance in Japan) [%] | frequency of hypotension, postural hypotension, blood pressure, tachycardia and palpitation (package insert, circulatory area) | frequency of orthostatic syncope, headache and sleepiness (package insert, psychoneural area) | Cmax and AUC versus dose ([1]; 0.1 to 0.6 mg oral, healthy adult volunteers) | day on which plasma concentration profiles reached the steady state ([1]; repeated administration per os for seven days) [days] |
| --- | --- | --- | --- | --- | --- | --- |
| CCOc1ccccc1OCCN[C@H](C)Cc1ccc(OC)c(S(N)(=O)=O)c1 [Tamsulosin, (R)(−)-5-[2-[[2-(o-ethoxyphenoxy)ethyl]-amino]propyl]-2-methoxybenzenesulfonamide] | postural hypotension was induced | – | – | – | – | – |
| CCOc1ccccc1OCCN[C@H](C)Cc1ccc(OC)c(S(N)(=O)=O)c1 [tamsulosin hydrochloride] | – | 2.2 | less than 0.1% | less than 0.1% | increased almost in proportion to the dose administered | 4 |
